Measurements from ChEMBL document CHEMBL5356974, “Development of MPS1 Inhibitors: Recent Advances and Perspectives” (J Med Chem, 2023).

Key:
[1] = target: T1, Dual specificity protein kinase TTK (Homo sapiens, UniProt P33981); assay: Inhibition of full-length MPS1 (unknown origin) using fluorescein-labeled MBP-derived peptide as substrate preincubated for 1 hr followed by substrate addition measured after 2 hrs in presence of ATP by FP assay
T1 sequence (P33981 whole entry): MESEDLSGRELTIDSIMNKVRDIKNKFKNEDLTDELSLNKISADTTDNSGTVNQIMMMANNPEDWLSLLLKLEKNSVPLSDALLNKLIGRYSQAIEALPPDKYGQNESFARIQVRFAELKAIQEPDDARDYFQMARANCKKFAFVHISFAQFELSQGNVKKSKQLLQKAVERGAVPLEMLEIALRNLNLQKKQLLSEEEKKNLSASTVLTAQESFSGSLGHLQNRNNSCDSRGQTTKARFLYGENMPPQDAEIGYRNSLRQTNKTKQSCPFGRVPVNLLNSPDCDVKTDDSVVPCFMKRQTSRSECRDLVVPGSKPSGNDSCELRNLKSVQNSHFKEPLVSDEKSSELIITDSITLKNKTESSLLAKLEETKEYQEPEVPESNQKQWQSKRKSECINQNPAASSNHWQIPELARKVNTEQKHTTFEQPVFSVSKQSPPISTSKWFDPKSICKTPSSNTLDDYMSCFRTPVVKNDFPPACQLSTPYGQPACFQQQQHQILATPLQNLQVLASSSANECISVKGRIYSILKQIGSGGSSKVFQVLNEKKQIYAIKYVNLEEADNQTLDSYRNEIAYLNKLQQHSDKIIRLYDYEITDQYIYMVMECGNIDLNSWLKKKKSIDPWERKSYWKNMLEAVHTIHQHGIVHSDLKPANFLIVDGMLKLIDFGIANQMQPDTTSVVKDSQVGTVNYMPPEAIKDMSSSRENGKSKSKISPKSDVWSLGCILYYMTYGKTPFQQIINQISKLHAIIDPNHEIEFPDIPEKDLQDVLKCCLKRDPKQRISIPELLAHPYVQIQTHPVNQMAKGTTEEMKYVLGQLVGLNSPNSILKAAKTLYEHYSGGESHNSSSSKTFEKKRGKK

[2] = target: T2, Dual specificity protein kinase TTK (Homo sapiens) (UniProt P33981); conditions: dose 100.0 nM
T2 sequence (whole entry): T1 sequence (P33981 whole entry)

[3] = target: T3, Serine/threonine-protein kinase NLK (Homo sapiens) (UniProt Q9UBE8); assay: Inhibition of NLK (unknown origin) relative to control; conditions: concentration not given here
T3 sequence (whole entry): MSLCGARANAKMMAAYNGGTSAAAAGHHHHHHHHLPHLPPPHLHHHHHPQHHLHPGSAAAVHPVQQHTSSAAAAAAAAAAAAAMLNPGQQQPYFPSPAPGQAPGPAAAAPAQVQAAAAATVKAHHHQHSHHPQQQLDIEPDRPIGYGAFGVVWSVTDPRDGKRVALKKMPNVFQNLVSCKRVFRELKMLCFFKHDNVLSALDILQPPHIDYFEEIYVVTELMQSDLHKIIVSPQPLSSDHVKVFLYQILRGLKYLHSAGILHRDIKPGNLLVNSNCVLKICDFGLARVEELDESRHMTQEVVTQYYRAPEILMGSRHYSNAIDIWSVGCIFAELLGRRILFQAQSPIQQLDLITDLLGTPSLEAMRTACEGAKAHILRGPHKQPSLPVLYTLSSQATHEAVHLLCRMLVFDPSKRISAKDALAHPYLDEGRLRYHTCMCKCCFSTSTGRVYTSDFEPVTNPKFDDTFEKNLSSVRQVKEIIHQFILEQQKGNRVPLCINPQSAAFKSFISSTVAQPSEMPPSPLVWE

[4] = target: Mitogen-activated protein kinase 9 (Homo sapiens) (UniProt P45984); assay: Inhibition of JNK2 (unknown origin) relative to control; conditions: concentration not given here
Chain of Mitogen-activated protein kinase 9 (Homo sapiens) (P45984 whole entry, looked up): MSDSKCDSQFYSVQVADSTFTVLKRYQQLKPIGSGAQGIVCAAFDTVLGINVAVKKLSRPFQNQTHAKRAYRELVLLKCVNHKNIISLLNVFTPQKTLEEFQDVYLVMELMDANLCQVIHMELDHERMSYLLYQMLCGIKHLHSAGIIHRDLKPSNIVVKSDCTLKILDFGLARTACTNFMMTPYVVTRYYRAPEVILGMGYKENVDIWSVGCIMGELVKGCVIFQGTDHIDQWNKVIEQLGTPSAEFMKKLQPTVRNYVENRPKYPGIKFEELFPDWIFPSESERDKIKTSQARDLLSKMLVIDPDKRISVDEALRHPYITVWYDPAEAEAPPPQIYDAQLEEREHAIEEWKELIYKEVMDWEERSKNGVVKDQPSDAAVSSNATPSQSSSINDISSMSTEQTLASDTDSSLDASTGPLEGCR

[5] = target: Mitogen-activated protein kinase 10 (Homo sapiens) (UniProt P53779); assay: Inhibition of JNK3 (unknown origin) relative to control; conditions: concentration not given here
Chain of Mitogen-activated protein kinase 10 (Homo sapiens) (P53779 whole entry): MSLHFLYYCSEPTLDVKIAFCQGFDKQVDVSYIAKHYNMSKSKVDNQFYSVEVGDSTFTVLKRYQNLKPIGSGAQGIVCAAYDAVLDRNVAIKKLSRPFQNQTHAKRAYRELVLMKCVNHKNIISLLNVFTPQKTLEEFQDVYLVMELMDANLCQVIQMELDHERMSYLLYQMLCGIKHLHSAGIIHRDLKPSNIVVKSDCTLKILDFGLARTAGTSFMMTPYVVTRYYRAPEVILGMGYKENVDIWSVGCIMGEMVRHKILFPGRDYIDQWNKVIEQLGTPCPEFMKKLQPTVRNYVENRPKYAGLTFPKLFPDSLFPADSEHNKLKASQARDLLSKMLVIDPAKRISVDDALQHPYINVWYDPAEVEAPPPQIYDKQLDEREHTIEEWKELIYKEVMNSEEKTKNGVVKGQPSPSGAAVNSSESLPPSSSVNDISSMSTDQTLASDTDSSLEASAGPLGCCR

Structure (SMILES): CCc1n[nH]c(CC)c1NC(=O)c1ccn2c1CCc1cnc(Nc3ccc(N4CCN(C)CC4)cc3OC)nc1-2
- IC50 [1]: 1.2 nM
- inhibition [2]: > 90%

Structure (SMILES): CCc1nn(CCOCCOC)c(CC)c1NC(=O)c1ccn2c1CCc1cnc(Nc3ccc(N4CCN(C)CC4)cc3OC)nc1-2
- inhibition [2]: > 90%

Structure (SMILES): CN1CCC(c2ccc(Nc3ncc4c(n3)-n3ccc(C(N)=O)c3CC4)cc2)CC1
- IC50 [1]: 7.6 nM

Structure (SMILES): Cn1cc(-c2cc3cnc(Nc4ccc(-c5cncn5C)cc4Cl)cc3n2C(=O)OC(C)(C)C)cn1
- inhibition [3]: 80%
- inhibition [4]: 80%
- inhibition [5]: 80%
